Experimental data as given in patent publication US12016843B2, “Compositions and methods for the treatment of amyotrophic lateral sclerosis, parkinson's disease, parkinson's disease with dementia, dementia with lewy bodies, and multiple system atrophy” (priority 2019, dated 2024).

Legend:
[1] = system: SOD1 G93A high copy transgenic mice; assay: Lifespan (survival to humane end of life) in SOD1 G93A mouse model of ALS; type: in vivo; settings: vs vehicle control
Description: (§1) Study Design. Three experimental groups of n=20 (10 male, 10 female) SOD1 G93A high copy transgenic mice were dosed daily via intraperitoneal administration of vehicle control; (R)-2-amino-N—((S)-1-(((S)-5-amino-1-(3-benzyl-1,2,4-oxadiazol-5-yl)pentyl)amino)-3-(4-hydroxy-2,6-dimethylphenyl)-1-oxopropan-2-yl)-5-guanidinopentanamide (as its tris-HCl salt-(Ia)) at 0.5 mg/kg; or (R)-2-amino-N—((S)-1-(((S)-5-amino-1-(3-benzyl-1,2,4-oxadiazol-5-yl)pentyl)amino)-3-(4-hydroxy-2,6-dimethylphenyl)-1-oxopropan-2-yl)-5-guanidinopentanamide (as its tris-HCl salt—(Ia)) at 5.0 mg/kg. Animals were dosed beginning at 8 weeks of age and dosing was continued until humane end of life (defined by the inability of animal to right itself from either side within 30 seconds when placed on its side). Experimental endpoints and in-life collections and observations were as follows: • 1. Bodyweight measurement. Daily recording of weight. • 2. Neurological scoring. Weekly NeuroScore, a qualitative assessment of neurological disease progression based upon a five-point grading system. […] The average force in grams of the 3 forepaw and 3 all-paws trials are analyzed with and without normalization to body weight. • 4. […]

[2] = Drug levels in whole brain homogenate by LC-MS/MS after subcutaneous injection; type: in vivo; settings: Sprague Dawley rats, 5 mg/kg subcutaneous, over 36 hours, compared with elamipretide
Description: Sprague Dawley rats were injected subcutaneously with 5 mg/kg of Compound Ia or elamipretide (n=4 per time-point). Animals were sacrificed at the indicated timepoints and transcardial perfusion was performed. Drug levels in whole brain homogenate were determined by LC-MS/MS.

[3] = system: SOD1 G93A high copy transgenic mice; assay: Neurological scoring (NeuroScore) in SOD1 G93A mouse model of ALS; type: in vivo; settings: vs vehicle
Description: as §1

[4] = system: C57BL/6 mice injected with A53T mutant alpha-synuclein viral particles; assay: Dopaminergic neuron loss in substantia nigra pars compacta induced by AAV9 human A53T alpha-synuclein (TH positive neuron counts); type: in vivo, mouse; settings: 0.5 mg/kg or 5.0 mg/kg daily ip for 5 weeks, vs group A (A53T AAV, no drug)
Description: Dopaminergic neuron loss in the substantia nigra pars compacta (SNc) was induced in wildtype C57BL/6 mice using AAV9 mediated viral delivery of human alpha-synuclein harboring the pathogenic A53T mutation. 4×10^10 viral particles per SNc were injected bilaterally via stereotactic surgery. Animals were nine weeks of age when viral transduction was performed. Animals were treated daily with intraperitoneal administration of (Ia) beginning 24 hours before viral transduction and continued for 5 weeks. Experimental groups were as follows: • 1. Group A—AAV A53T injected, vehicle treatment (n=7) • 2. Group B1—AAV A53T injected, (Ia) at 0.5 mg/kg treatment (n=8) • 3. Group B2—AAV A53T injected, (Ia) at 5.0 mg/kg treatment (n=8) • 4. Group C1—Sham AAV9 injected, (Ia) at 0.5 mg/kg treatment (n=6) • 5. Group C2—Sham AAV9 injected, (Ia) at 5.0 mg/kg treatment (n=7)
Five weeks following viral transduction, animals were sacrificed and brains were removed and processed for immunohistochemistry and cell counts (i.e., number of TH positive neurons) in the substantia nigra pars compacta were performed via automated stereology. Serial sections were cut and stained with tyrosine hydroxylase (TH) to enumerate the number of dopaminergic neurons. Results are illustrated in FIGS. 6A and 6B; ** p<0.01 vs groups; *** p<0.001 vs group A; ^OO p<0.001 vs group C1 and C2.

[5] = female SOD1 G93A mice, daily intraperitoneal

Cc1cc(O)cc(C)c1C[C@H](NC(=O)[C@H](N)CCCNC(=N)N)C(=O)N[C@@H](CCCCN)c1nc(Cc2ccccc2)no1.Cl.Cl.Cl [Compound Ia, (R)-2-amino-N—((S)-1-(((S)-5-amino-1-(3-benzyl-1,2,4-oxadiazol-5-yl)pentyl)amino)-3-(4-hydroxy-2,6-dimethylphenyl)-1-oxopropan-2-yl)-5-guanidinopentanamide·3HCl]
lifespan [1, 5]: no effects
lifespan ([1]; male SOD1 G93A mice, 5.0 mg/kg daily intraperitoneal): significantly increased
brain exposure (drug levels in whole brain homogenate) [2]: higher than that of elamipretide
progression of neurological symptom onset (five-point neurological score) [3, 5]: no effects
progression of neurological symptom onset (five-point neurological score) ([3]; male SOD1 G93A mice, 5.0 mg/kg daily intraperitoneal from 8 weeks of age, two-way ANOVA): delayed the progression of neurological symptom onset
mutant alpha-synuclein-induced loss of dopaminergic neurons in the substantia nigra (number of TH positive neurons) [4]: significantly attenuated
